Series [1] addresses T1, RNase A (Bos taurus, UniProt P61823).
T1 sequence (P61823 27-150): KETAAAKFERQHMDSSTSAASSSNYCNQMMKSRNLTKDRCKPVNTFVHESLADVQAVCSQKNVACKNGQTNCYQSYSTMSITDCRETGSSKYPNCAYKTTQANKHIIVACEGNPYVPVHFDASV
As to the kind of experiment: Glycan array screening for RNase A ligands. The series is classed as binding, cow. As to conditions: printed glycan array, Figure 1.

The test system of series [2] is human leukemia cells. To be noted: read-out: IC50 (cytotoxicity), ref [6],[15]; cited from earlier work.

The IC50 is the point on the concentration scale where inhibition reaches its midpoint.

For the molecule `CC(=O)NC1C(OC2C(O)C(CO)OC(OC3C(CO)OC(OC4C(CO)OC(O)C(O)C4O)C(O)C3O)C2O)OC(CO)C(O)C1OC1OC(CO)C(O)C(O)C1O` (stereo not shown) [glycan 127, Galβ1–3GalNAcβ1–3Galα1–4Galβ1–4Glc], the “binding of RNase A to glycan in the array (in words)” value in series [1] is “little affinity”.
On the same count and under the same terms, under “GalNAcβ1–3Galα1–4Galβ1–4GlcNAc [glycan 90]” stands “did bind”.

B1: DRRRD RNase 1: RI-evasive cytotoxic variant of RNase 1 (R39D/N67R/N88R/G89R/R91D) (protein, UniProt P07998 29-156, looked up, variant R39D N67R N88R G89R R91D)
Ribonuclease pancreatic: KESRAKKFQRQHMDSDSSPSSSSTYCNQMMRRRNMTQGDCKPVNTFVHEPLVDVQNVCFQEKVTCKRGQGNCYKSNSSMHITDCRLTRRSDYPNCAYRTSPKERHIIVACEGSPYVPVHFDASVEDST
Consider B1, for which the IC50 in series [2] was 10.8 µM.

B2: RNase A (G88R): RI-evasive cytotoxic G88R variant of RNase A (protein, UniProt P61823 27-150, looked up, variant G88R)
Ribonuclease pancreatic: KETAAAKFERQHMDSSTSAASSSNYCNQMMKSRNLTKDRCKPVNTFVHESLADVQAVCSQKNVACKNGQTNCYQSYSTMSITDCRETRSSKYPNCAYKTTQANKHIIVACEGNPYVPVHFDASV
As for B2, the half-maximal inhibitory concentration (IC50) in series [2] was 6.2 µM.

The record behind these values is PMC4571170 (ACS Central Science, 2015).
